Assay results reported in PMC7611705 (Science translational medicine, 2021).
Counter-ions that a name gives are not always drawn. Values belong to the compound of their own block, whether it stands above or below them.

Columns and labels:
A549 cells [1] = assay: Western blot of BCL2, cIAP1 and cIAP2 expression in A549 cells; type: cell-based; details: 24 h
A549 cells [2] = assay: Caspase activation in A549 cells; type: cell-based; details: cisplatin 12.5 μM 24 h
A549 cells [3] = assay: Random cell migration / 3D collagen-I invasion of A549 cells; type: cell-based; details: for cell migration/invasiveness: inhibitors 10 μM
[4] = target: RSK4 N-terminal kinase domain (RSK4-NTKD) (Homo sapiens, UniProt Q9UK32); assay: Differential scanning fluorimetry; type: binding; details: inactive/dephosphorylated (APO) vs fully-active (ATP)
RSK4 [5] = target: T1, RSK4 (Homo sapiens, UniProt Q9UK32); assay: biochemical; details: for activity in RSK4 HTRF-activation assay (inhibitor or inactive): floxacin family members
[6] = test system: patients undergoing chemotherapy; assay: Retrospective overall survival analysis of the SIGNIFICANT trial; type: in vivo, human
cIAP1 and cIAP2 = assay: Cellular cIAP1 and cIAP2 expression after levofloxacin; type: cell-based; details: concentrations achievable from the clinical trial dose
ERK = ERK (Homo sapiens, UniProt P28482); assay: ERK activity; type: biochemical
RSK4 [7] = target: T1, RSK4; type: biochemical
panel of 140 kinases = assay: In-vitro activity screen against a panel of 140 kinases; type: biochemical; details: 10 μM
A549 cells [8] = assay: Cisplatin/taxol sensitisation of A549 cells; type: cell-based
bladder cancer explants = assay: Patient-derived bladder cancer explants; details: synergistic in two, additive in one
A549-Luc xenograft = assay: A549-Luc subcutaneous xenograft in nude mice; type: in vivo; details: 30 mg/kg daily oral gavage, 14 days
RSK1 = RSK1 (Homo sapiens, UniProt Q15418); assay: RSK1 activation in cells; type: cell-based; details: preliminary data
RSK1, sequence (Q15418 whole entry): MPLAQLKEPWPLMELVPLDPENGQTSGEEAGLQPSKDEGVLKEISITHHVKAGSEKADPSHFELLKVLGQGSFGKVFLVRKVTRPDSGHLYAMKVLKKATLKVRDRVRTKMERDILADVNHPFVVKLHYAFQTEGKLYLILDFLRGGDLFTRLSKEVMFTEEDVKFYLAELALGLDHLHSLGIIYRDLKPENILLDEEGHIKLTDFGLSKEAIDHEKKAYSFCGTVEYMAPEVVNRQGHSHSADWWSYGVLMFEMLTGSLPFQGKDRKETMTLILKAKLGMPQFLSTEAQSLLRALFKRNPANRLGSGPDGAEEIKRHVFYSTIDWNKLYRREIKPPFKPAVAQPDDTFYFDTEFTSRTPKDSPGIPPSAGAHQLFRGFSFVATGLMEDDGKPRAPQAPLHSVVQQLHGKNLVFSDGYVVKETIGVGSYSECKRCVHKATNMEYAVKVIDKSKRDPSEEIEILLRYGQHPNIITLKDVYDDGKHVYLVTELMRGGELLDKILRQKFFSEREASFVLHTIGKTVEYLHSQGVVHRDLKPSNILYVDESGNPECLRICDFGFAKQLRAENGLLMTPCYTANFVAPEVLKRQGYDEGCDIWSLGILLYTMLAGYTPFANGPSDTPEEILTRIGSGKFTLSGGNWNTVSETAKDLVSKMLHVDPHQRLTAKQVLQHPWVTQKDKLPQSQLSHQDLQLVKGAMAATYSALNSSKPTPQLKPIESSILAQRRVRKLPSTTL

T1 sequence (Q9UK32 whole entry): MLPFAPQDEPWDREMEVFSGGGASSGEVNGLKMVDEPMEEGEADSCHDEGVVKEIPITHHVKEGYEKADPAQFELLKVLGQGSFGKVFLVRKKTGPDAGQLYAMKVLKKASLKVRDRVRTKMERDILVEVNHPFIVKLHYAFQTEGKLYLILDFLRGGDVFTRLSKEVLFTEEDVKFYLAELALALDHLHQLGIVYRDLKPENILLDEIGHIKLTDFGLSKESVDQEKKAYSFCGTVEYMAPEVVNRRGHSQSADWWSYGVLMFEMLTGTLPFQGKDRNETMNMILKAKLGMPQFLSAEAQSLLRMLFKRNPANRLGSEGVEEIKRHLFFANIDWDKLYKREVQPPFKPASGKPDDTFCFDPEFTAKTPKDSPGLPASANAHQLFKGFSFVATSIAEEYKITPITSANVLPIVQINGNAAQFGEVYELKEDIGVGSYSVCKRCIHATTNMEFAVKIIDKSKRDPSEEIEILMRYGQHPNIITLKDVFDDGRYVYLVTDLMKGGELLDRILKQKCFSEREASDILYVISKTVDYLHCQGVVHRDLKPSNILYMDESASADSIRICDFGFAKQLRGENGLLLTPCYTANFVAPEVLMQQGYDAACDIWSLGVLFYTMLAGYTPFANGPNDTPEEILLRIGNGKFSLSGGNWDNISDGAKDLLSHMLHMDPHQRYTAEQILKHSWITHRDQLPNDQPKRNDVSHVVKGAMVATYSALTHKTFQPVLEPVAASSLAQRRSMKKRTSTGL
RSK4 N-terminal kinase domain (RSK4-NTKD), sequence (Q9UK32 48-349): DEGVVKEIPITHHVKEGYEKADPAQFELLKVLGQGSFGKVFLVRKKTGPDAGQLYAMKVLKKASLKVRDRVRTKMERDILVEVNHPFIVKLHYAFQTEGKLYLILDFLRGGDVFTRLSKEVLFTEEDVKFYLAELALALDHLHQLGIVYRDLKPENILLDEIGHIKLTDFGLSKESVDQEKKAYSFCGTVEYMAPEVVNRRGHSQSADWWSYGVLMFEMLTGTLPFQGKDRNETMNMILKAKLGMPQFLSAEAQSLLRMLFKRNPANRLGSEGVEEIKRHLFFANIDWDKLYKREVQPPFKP
ERK, sequence (P28482 whole entry): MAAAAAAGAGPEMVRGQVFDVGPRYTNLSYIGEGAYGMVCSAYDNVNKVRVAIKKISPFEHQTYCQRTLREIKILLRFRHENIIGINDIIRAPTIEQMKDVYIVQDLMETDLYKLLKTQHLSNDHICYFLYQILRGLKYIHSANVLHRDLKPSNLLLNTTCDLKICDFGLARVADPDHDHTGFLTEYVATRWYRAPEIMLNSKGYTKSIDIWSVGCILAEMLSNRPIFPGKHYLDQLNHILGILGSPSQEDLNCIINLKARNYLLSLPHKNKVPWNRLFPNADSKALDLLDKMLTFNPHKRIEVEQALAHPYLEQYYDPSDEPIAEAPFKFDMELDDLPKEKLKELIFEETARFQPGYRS

Compound: CC(C)CCN1c2nc(Nc3cc(F)c(O)c(F)c3)ncc2N(C)C(=O)C1C (centres unmarked) [BI-D1870]
expression of BCL2 and cIAP1/2 (A549 cells [1]): an effect not seen
caspase activation in response to cisplatin (A549 cells [2]): failed to promote cisplatin-induced caspase activation

Compound: CC(=O)O[C@@H]1[C@@H](OC(C)=O)[C@@H](O)[C@H](Oc2c(-c3ccc(O)cc3)oc3cc(O)cc(O)c3c2=O)O[C@H]1C [SL-0101]
invasiveness of A549 cells with pan-RSK inhibitor (A549 cells [3]): promotes lung cancer invasiveness

Compound: O=C(O)c1cn(C2CC2)c2cc(N3CCNCC3)c(F)cc2c1=O [ciprofloxacin]
binding to RSK4-NTKD [4]: failed to bind RSK4
expression of BCL2 and cIAP1/2 (A549 cells [1]): an effect not seen
cell migration/invasiveness (A549 cells [3]): did not impair cell invasiveness

Compound: CN1C[C@@H]2C[C@H]1CN2c1cc2c(cc1F)c(=O)c(C(=O)O)cn2C1CC1 [danofloxacin]
cell migration/invasiveness (A549 cells [3]): did not impair cell invasiveness
activity in RSK4 HTRF-activation assay (inhibitor or inactive) (RSK4 [5]): inactive analogues

Compound: C[C@H]1COc2c(N3CCN(C)CC3)c(F)cc3c(=O)c(C(=O)O)cn1c23 [levofloxacin]
hazard ratio for overall survival vs placebo ([6]; adherent patients (n=937), 95% CI 0.69-0.999, p=0.048): 0.83
hazard ratio in lung and bladder cancer patients compared to the entire cohort ([6]; lung and bladder cancer patients): further improved
hazard ratio for overall survival vs placebo ([6]; non-adherent patients (n=543), 95% CI 0.89-1.40, p=0.36): 1.11
median overall survival ([6]; patients adhering to trial treatment (n=937)): 72 months
cellular cIAP1 and cIAP2 expression (cIAP1 and cIAP2): decreased cellular cIAP1 and cIAP2 expression
activity in RSK4 HTRF-activation assay (inhibitor or inactive) (RSK4 [5]): inhibited RSK4 activation

Now from value to compound, other results behind:

activity in RSK4 HTRF-activation assay (inhibitor or inactive) (RSK4 [5]): additional inhibitors
Compound: CN1CCN(c2c(F)cc3c(=O)c(C(=O)O)cn4c3c2OCN4C)CC1 [marbofloxacin]

effect on ERK activity (ERK): did not interfere with ERK activity
α (non-competitive binding to Enzyme and Enzyme-Substrate state) (RSK4 [7]): 1
effect on ATP Km and Vmax of RSK4 (RSK4 [7]; sub-maximal inhibition): maintained Km and displayed reduced Vmax
IC50 (RSK4 [5]): 6.2 µM
selectivity RSK4 vs RSK1 (RSK4 [5]): favoured RSK4 over RSK1
inhibition at 30 µM (RSK4 [5]; read-out: inhibition of RSK4 activation): > 75%
Compound: COc1c(N2C[C@@H]3CCCN[C@@H]3C2)c(F)cc2c(=O)c(C(=O)O)cn(C3CC3)c12 [moxifloxacin]
cell migration/invasiveness (A549 cells [3]): shared this ability
mode of inhibition of RSK4 activation (RSK4 [5]): non-ATP competitive reversible inhibitor of RSK4 activation
preference RSK4 activation vs fully-active RSK4 (RSK4 [5]): preference for preventing RSK4 activation rather than inhibiting fully-active RSK4

activity in RSK4 HTRF-activation assay (inhibitor or inactive) (RSK4 [5]): inactive analogues
Compound: CCn1cc(C(=O)O)c(=O)c2cnc(N3CCCC3)nc21 [piromidic acid]

activity in RSK4 HTRF-activation assay (inhibitor or inactive) (RSK4 [5]): additional inhibitors
Compound: CN1CCN(c2c(F)cc3c(=O)c(C(=O)O)cn4c3c2SCC4)CC1 [rufloxacin]

activity in RSK4 HTRF-activation assay (inhibitor or inactive) (RSK4 [5]): additional inhibitors
Compound: NC1CCN(c2nc3c(cc2F)c(=O)c(C(=O)O)cn3-c2ccc(F)cc2F)C1 (centres unmarked) [tosufloxacin, tosufloxacin tosylate]
cell migration/invasiveness (A549 cells [3]): shared this ability

IC50 (RSK4 [5]): 10 µM
activity in RSK4 HTRF-activation assay (inhibitor or inactive) (RSK4 [5]): additional inhibitors
Compound: N[C@@H]1[C@H]2CN(c3nc4c(cc3F)c(=O)c(C(=O)O)cn4-c3ccc(F)cc3F)C[C@@H]12 [trovafloxacin]
inhibition of other kinases (panel of 140 kinases): No other kinase was substantially inhibited
sensitisation of A549 cells to cisplatin (A549 cells [8]; 7.5 μM, cisplatin 12.5 μM for 72 h): reducing the IC50 for cisplatin
concentration giving maximal potentiation of cisplatin or taxol effects (A549 cells [8]; A549 cells): ≈ 10 μM
nature of the relationship with cisplatin (A549 cells [8]; A549 cells): synergistic
benefit of combination with cisplatin in explants (bladder cancer explants): beneficial in 3 out of 4 patient-derived bladder cancer explants
binding to RSK4-NTKD [4]: bound the inactive/dephosphorylated, but not the fully-active
expression of BCL2 and cIAP1/2 (A549 cells [1]): decreased expression of BCL2 and cIAP1/2
caspase activation in response to cisplatin (A549 cells [2]): promotion of caspase activation
tumour growth vs vehicle-only (A549-Luc xenograft): significantly (p<0.05) decreased tumour growth
cell migration/invasiveness (A549 cells [3]): reproduced the inhibition of cell migration/invasiveness
activation of RSK1 in cells (RSK1): does not inhibit the activation of RSK1 in cells
